According to US7244712B2, “Aminoglycoside antibiotics and methods of using same” (priority 2004, dated 2007):
≈ marks a conversion by molar mass, not a printed value. Entries after “also recorded” stand apart in the source; their conditions may differ.

How the values were obtained:
[1] = system: E. coli (ATCC 25922) transformed with the plasmid pMM, bearing the APH(3')IIa gene; assay: Antibiotic activity disk assay, kanamycin/neomycin resistant E. coli; type: cell-based; conditions: FIG. 7B
Protocol: (§1) E. coli (ATCC 25922) and P. aeruginosa (ATCC 27853) (BD Bioscience) were inoculated in 3 mL of the medium 2 (U.S. Pharmacopia), containing 6 g peptone, 3 g yeast extract and 1.5 g beef extract per 1 L, pH 6.6, and were grown in a shaker for 6 h at 37° C. until an OD 560=0.6-0.8 was reached.
(§2) For the antibiotic disk assay, […] of each bacterial inoculum was mixed with 10 mL of melted agar (1.5% medium 2 agar, BD Bioscience) at 50-55° C. and poured onto 100 mm Petri dishes. Sterile Whatmann 3 MM 5 mm paper disks were soaked with antibiotic solutions and allowed to dry. The disks were positioned evenly on the surface of bacterial-inoculated solid agar and the plates were incubated at 37° C. for 1-2 days. MIC and bactericide index measurements.

E. coli (ATCC 25922) [2] = assay: Antibiotic activity disk assay, wild type E. coli; type: cell-based; conditions: FIG. 7A
Protocol: as §1, §2

E. coli (ATCC 25922) [3] = assay: Bactericidal activity (bactericide index); type: cell-based; conditions: 3 h incubation, FIG. 8
Protocol: The bactericidal activity of each antibiotic was investigated at concentrations of 0.5-4×MIC in medium E. coli (ATCC 25922) inoculum was added to 0.5 mL medium 2 to OD 600 ˜0.1 together with different antibiotic concentrations. The samples were incubated at 37° C. for 3 hrs, and the bacteria were collected by centrifugation. The bacterial pellets were washed with 0.5 mL of medium 2 and were plated on 1.5% medium 2 agar in 100 mm Petri dishes. The plates were incubated for 1-2 days at 37° C. and mean log 10 change in viable count was calculated and plotted vs drug concentration.

S. aureus = assay: Antibacterial activity against S. aureus; type: cell-based
70S ribosome = assay: Fluorescence anisotropy binding to 70S ribosomes; conditions: competition with CRP, E. coli ribosomes; read-out: Dissociation constant (KD) with 70S ribosome
Protocol: After establishing the lack of stereospecificity in the binding of aminoglycosides to the A-site RNA constructs (FIG. 9A-C) where the binding affinity, KD, is about 0.1 μM to about 100 μM, the stereospecificity of aminoglycoside binding to intact ribosomes was determined. Both yeast and E. coli ribosomes were prepared and aminoglycoside binding was measured using fluorescence anisotropy methods. For example, fluorescence anisotropy methods recited in Wang, Y., and Rando, R. R. Chem. Biol. (1995) 2, 281-290; and Wang, Y., Hamasaki, K., and Rando, R. R. Biochemistry (1997) 36,768-779. CRP was used as the binding probe. […] Binding data reported herein for aminoglycoside compounds with eukaryotic yeast ribosomes are similar to binding data for said aminoglycoside compounds with ribosoimes in bacteria and with eukaryotic A-site rRNA constructs.
5-Carboxytetramethylrhodamine-labeled paromomycin (CRP) and tobramycin (CRT) concentrations were determined spectroscopically at 550 nm using a molar extinction coefficient of 6.00×10 4 M −1 cm −1. Fluorescence anisotropy measurements were performed on a Perkin-Elmer LS-50B luminescence spectrometer equipped with a thermostat accurate to ±0.1° C. as indicated previously (Wang, Y., Hamasaki, K., & Rando, R. R. (1997) Biochemistry 36, 768-779). The tracer solution was excited at 550 nm and monitored at 580 nm. The integration time was 5 s. For every point, 6 measurements were taken, and their average values were used for calculation. Measurements were carried out in a buffer solution containing 150 mM NaCl, 5 mM KCl, 1 mM CaCl2, 1 mM MgCl2, and 20 mM HEPES (pH 7.5). Prior to measurements, RNA constructs were renatured by incubating in binding buffer {150 mM NaCl, 5 mM KCl, 1 mM CaCl2, 1 mM MgCl2, and 20 mM HEPES (pH 7.5)} for 3 minutes at 90° C. followed by slow cooling to 25° C.
Equation 1 was used for the determination of the dissociation constant (Kd) for the interactions between RNA or ribosome and CRP. A=A0+DA{(RNA)0+(CRP)0+Kd−({(RNA)0+(CRP)0+Kd}^2−4(RNA)0(CRP)0)½}/2 where A and A0 are the fluorescence anisotropy of CRP in the presence and absence of RNA, respectively, and DA is the difference between the fluorescence anisotropy of CRP in the presence of an extrapolated infinite concentration of RNA minus the fluorescence anisotropy in the absence of RNA. (RNA)0 and (CRP)0 are the initial concentrations of RNA and CRP, respectively.
Equation 2 is used for the calculation of the KD values in the competition binding assay. (aminoglycoside)0={KD(A−−A)/Kd(A−A0)+1}{(RNA)0−Kd(A−A0)/(A−−A)−(CRP)0(A−A0)/(A−−A)} where KD is the dissociation constant between the RNA and the aminoglycosides; (aminoglycoside)0 is the initial concentration of the aminoglycosides; AL is anisotropy of completely bound tracer. Both Kd and KD were determined by non-linear curve fitting using the equations described above, and are presented as mean values of three independent measurements.
The purification of E. coli (E600) 70S ribosomes was carried out according to the published procedure (Lazaro, E., van den Broek, L. A. G. M., Felix, A. S., Ottenheijm, H. C. J., Ballesta, J. P. G. (1991) Biochemistry 30, 9642-9648). E. coli MRE600 were grown for 12 h in 6L of LB medium (10 g trypton, 5 g yeast extract, 5 g NaCl per 1 L, pH 7.0) at 37° C. Crude ribosomes were precipitated from clarified supernatant by 4 h centrifugation at 25,000 rpm in Beckman SW 28 rotor at 4° C. The ribosome pellets were collected in 5 mL of buffer BR1, containing 10 mM HEPES, pH 7.5, 500 mM ammonium acetate, 100 mM magnesium chloride and 2.5 mM DTT. The ribosome suspension was centrifuged for 20 min at 15000 rpm to be clarified. The clarified sample was loaded over two layers of 20% and 40% sucrose in buffer BR1 and centrifuged for 18 hr at 19000 rpm in Beckman SW28 rotor at 4° C. […]

[4] = system: P. aeruginosa (ATCC 27853); assay: MIC, P. aeruginosa; type: cell-based; conditions: growth inhibition greater than 90%
Protocol: Minimal inhibitory concentrations (MIC) were measured according to the published method (Greenberg, W. A., Priestley, E. S., Sears, P. S., Alper, P. B., Rosenbohm, C., Hendrix, M., Hung, S.-C., & Wong, C.-H. (1999) J. Am. Chem. Soc. 121, 6527-6541). E. coli (ATCC 25922) (both wild type and pMM-transformed) and P. aeruginosa (ATCC 27853) were grown in medium 2 to an optical density OD 600 of 0.6-0.8. The inoculi were diluted to OD 600 ˜0.1 in medium 2 and 1 mL of the culture was placed in 13 mL test tubes. The desired concentrations of antibiotic were added from stock solutions. […] The absorbance at 600 nm of each sample was read and MIC was taken as the lowest antibiotic concentration inhibiting bacterial growth by greater than 90%.

## NCC1OC(OC2C(N)CC(N)C(O)C2O)C(N)C(O)C1O [L-Neamine]
[1]
  Antibiotic activity in disk assay, kanamycin/neomycin resistant E. coli: maintained antibiotic activity; also recorded: maintaines substantially the same level of activity
E. coli (ATCC 25922) [2]
  Antibiotic activity in disk assay, WT E. coli: somewhat lower activity
E. coli (ATCC 25922) [3]
  Concentration at which bactericidal effect begins: 600 µM
S. aureus
  Antibacterial activity against S. aureus: little to no antibacterial activity
70S ribosome
  Kd: 2.69 ± 0.46 µM
[4]
  Minimal inhibitory concentration (MIC), P. aeruginosa: 1600 µM (≈ 516 µg/mL)
